Here are results for six compounds from article PMC6268909 (Molecules, 2012).

For series [1], the system named is Ralstonia solanacearum ATCC 11696. In words: microbe, parasite or virus in culture. The series is classed as cell-based. The settings on record: ATCC11696, 24 h, read-out: IC50, antimicrobial activity, R. sol.
For series [2], the system named is Pseudomonas lachrymans ATCC 11921. Description: microbe, parasite or virus in culture. The series is classed as cell-based. The settings on record: ATCC11921, 24 h, read-out: IC50, antimicrobial activity, P. lach.
Series [3] deals with T1, acetylcholinesterase (AChE) (Homo sapiens, UniProt P22303).
T1 construct: purchased Sigma-Aldrich (St. Louis, MO, USA)
Description: biochemical.

Series [4] concerns human colon carcinoma cells. As to conditions: cited from earlier work.
Series [5] concerns Agrobacterium tumefaciens ATCC 11158. In words: microbe, parasite or virus in culture. The settings on record: ATCC11158, 24 h, read-out: IC50, antimicrobial activity, A. tum. The series is classed as cell-based.
The test system of series [6] is Bacillus subtilis ATCC 11562. In words: microbe, parasite or virus in culture. The settings on record: ATCC11562, 24 h, read-out: IC50, antimicrobial activity, B. sub. The format is cell-based.
Series [7] has as its system various cultured mammalian cells. As to conditions: cited from earlier work.
The test system of series [8] is Xanthomonas vesicatoria ATCC 11633. Description: microbe, parasite or virus in culture. As to conditions: ATCC11633, 24 h, read-out: IC50, antimicrobial activity, X. ves. The series is classed as cell-based.
The subject of the next series is Magnaporthe oryzae P131. In words: microbe, parasite or virus in culture. The format is cell-based. As to conditions: Pyricularia oryzae, read-out: IC50, antimicrobial activity, M. or.
Another series deals with Alternaria alternata. Set-up: method as in PMID 15787237. The settings on record: cited from earlier work.
In series [9] the target is acetycholinesterase (AChE). Set-up: method as in PMID 15787237. As to conditions: previously reported; cited from earlier work.
Series [10] has as its system Cladosporium cladosporioides. Also noted: method as in PMID 20158153. The settings on record: compound from endophytic Penicillium sp.; cited from earlier work.
The subject of another series is Microbotryum violacerum. Set-up: method as in earlier work. The settings on record: compound from endophytic fungus of Meliotus dentatus; cited from earlier work.
The subject of series [11] is methicillin-resistant S. aureus. The settings on record: cited from earlier work.
The next series deals with Staphylococcus aureus. The settings on record: cited from earlier work.
In the next series the test system is Bacillus megaterium. Set-up: method as in earlier work. As to conditions: compound from endophytic fungus of Meliotus dentatus; cited from earlier work.
For another series, the system named is C. sphaerospermum. Set-up: method as in PMID 20158153. The settings on record: compound from endophytic Penicillium sp.; cited from earlier work.

Each structure is given as a SMILES string. Values after ≈ are worked out from the molar mass of the structure shown. Structures can show the parent of a compound that is named as a salt. Where two headings read alike, the source gives them in different places.

As usually defined, the IC50 is the concentration at which inhibition is half-maximal. By MIC is commonly meant the smallest concentration in the dilution series that meets the test's criterion for growth inhibition.

T1 sequence (P22303 32-614, species assumed): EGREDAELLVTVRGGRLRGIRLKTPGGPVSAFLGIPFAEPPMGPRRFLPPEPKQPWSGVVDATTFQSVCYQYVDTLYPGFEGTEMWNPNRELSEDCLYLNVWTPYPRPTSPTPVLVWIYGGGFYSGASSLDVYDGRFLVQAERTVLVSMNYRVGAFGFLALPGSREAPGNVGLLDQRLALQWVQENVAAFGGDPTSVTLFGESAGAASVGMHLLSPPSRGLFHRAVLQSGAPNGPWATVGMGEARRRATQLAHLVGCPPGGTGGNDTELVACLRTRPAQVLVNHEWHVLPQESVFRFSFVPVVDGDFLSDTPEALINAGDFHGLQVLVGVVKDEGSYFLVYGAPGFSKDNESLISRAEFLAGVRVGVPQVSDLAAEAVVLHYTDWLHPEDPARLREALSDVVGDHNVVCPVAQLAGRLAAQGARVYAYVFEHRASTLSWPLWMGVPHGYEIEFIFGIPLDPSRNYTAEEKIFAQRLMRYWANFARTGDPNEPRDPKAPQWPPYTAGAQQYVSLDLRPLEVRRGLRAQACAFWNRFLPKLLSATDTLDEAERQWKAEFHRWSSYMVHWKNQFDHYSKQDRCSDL

Take `COc1cc(O)c2c(=O)oc3cc(O)cc(C)c3c2c1` [Alternariol 9-methyl ether (3), 3,7-dihydroxy-9-methoxy-1-methyl-6H-dibenzo[b,d]pyran-6-one]: the half-inhibitory concentration (IC50) in series [1] is 29.2 µg/mL (≈ 107 µM); in series [2], 27.1 µg/mL (≈ 99.5 µM); in series [3] it was 498 µM; in [5], 28.8 µg/mL (≈ 106 µM); in series [6], 34.3 µg/mL (≈ 126 µM); in [8], 30.1 µg/mL (≈ 110 µM). Moreover, the half-maximal inhibitory concentration (IC50) in the series with Magnaporthe oryzae P131 (P131, 7 h at 25 °C) turned out to be 123 µg/mL (≈ 452 µM). Also, in series [4], the mitochondrial apoptosis entry is “induce mitochondrial apoptosis”. Also, in [7], the “DNA strand breaks, micronuclei and gene mutations” value is “induce DNA strand breaks, micronuclei and gene mutations”.
With `COC1=CC2(C)OC(=O)c3c(O)cc(OC)cc3C2=C(O)C1=O` (centres unmarked) [Botrallin (4), 1,7-dihydroxy-3,9-dimethoxy-4a-methyl-6H-dibenzo[b,d]pyran-2,6 (4aH)-dione], the IC50 in series [1] is 85.5 µg/mL (≈ 269 µM); in [2], 92.2 µg/mL (≈ 290 µM); in series [3] it was 326 µM; in series [5] it was 87.5 µg/mL (≈ 275 µM); in series [6] it was 98.5 µg/mL (≈ 309 µM); in series [8] it was 86.3 µg/mL (≈ 271 µM). Further, in the series with Magnaporthe oryzae P131 (P131, 7 h at 25 °C), the IC50 stood at 107 µg/mL (≈ 337 µM). In addition, the minimal inhibitory concentration (MIC) in the series on Alternaria alternata was 62.5 µg/mL (≈ 196 µM). Further, the “IC50, acetycholinesterase (AChE) inhibitory activity” value in series [9] was 6.1 µg/mL (≈ 19.2 µM).
Consider `COC(=O)Nc1nc2ccccc2[nH]1` [carbendazim, reference compound], for which the half-inhibitory concentration (IC50) in the series with Magnaporthe oryzae P131 (P131, 7 h) is 13 µg/mL (≈ 68 µM).
Take `CC1OC(=O)c2c(O)cccc2C1O` (centres unmarked) [4,8-dihydroxy-3-methylbenzopyran-1-one]: the “antifungal activity at concentration” value was 5.00 µg/mL in series [10] and 10.0 µg/mL in the series on C. sphaerospermum. Moreover, the antifungal activity entry in the series with Microbotryum violacerum is on record as “antifungal activity”. The IC50 was 16.2 µg/mL (≈ 83.6 µM) in series [1]; 16.2 µg/mL (≈ 83.3 µM) in series [2]; 598 µM in [3]; 18.2 µg/mL (≈ 93.8 µM) in series [5]; 19.2 µg/mL (≈ 99 µM) in series [6]; 17.8 µg/mL (≈ 91.7 µM) in [8]. Besides, the IC50 with Magnaporthe oryzae P131 (P131, 7 h) worked out at 113 µg/mL (≈ 584 µM). The MIC (in series [11]; with Staphylococcus aureus) was 8 µg/mL (≈ 41.2 µM) throughout. In the series with Bacillus megaterium, the antibacterial activity result is recorded as “strong antibacterial activity”.
On to `[H]/N=C(/N)N[C@H]1[C@H](O)[C@@H](O)[C@H](O[C@@H]2O[C@@H](C)[C@](O)(C=O)[C@H]2O[C@@H]2O[C@@H](CO)[C@H](O)[C@@H](O)[C@@H]2NC)[C@@H](N/C(N)=N\[H])[C@@H]1O` [streptomycin sulfate, reference compound], for which the IC50 was determined as 7.19 µg/mL in [1]; 8.34 µg/mL in [2]; 6.34 µg/mL in series [5]; 8.35 µg/mL in [6]; 6.79 µg/mL in [8].
Turning to `COc1cc(O)c2c(=O)oc3cc(O)c(Cl)c(C)c3c2c1` [Palmariol B (1), 2-chloro-3,7-dihydroxy-9-methoxy-1-methyl-6H-dibenzo[b,d]pyran-6-one], the half-inhibitory concentration (IC50) in [1] was 17.5 µg/mL (≈ 57.1 µM); in [2] it was 16.7 µg/mL (≈ 54.6 µM); in series [3], 376 µM; in series [5], 19.4 µg/mL (≈ 63.1 µM); in [6], 27.7 µg/mL (≈ 90.2 µM); in [8] it was 28.1 µg/mL (≈ 91.7 µM). For the same compound, the concentration for half-maximal inhibition (IC50) in the series with Magnaporthe oryzae P131 (P131, 7 h at 25 °C) is 119 µg/mL (≈ 387 µM).
